Laboratory results taken from ChEMBL document CHEMBL1772974, “Optimization of potent, selective, and orally bioavailable pyrrolodinopyrimidine-containing inhibitors of heat shock protein 90. Identification of development candidate …” (J Med Chem, 2011).
≈ marks a conversion by molar mass, not a printed value. Values belong to the compound of their own block, whether it stands above or below them.

Columns and labels:
[1] = in vitro; conditions: human, Caco-2
[2] = Permeability from apical to basolateral side of MDCK cells; format: ADME, cell-based, Canis lupus familiaris; conditions: dog, read-out: permeability
[3] = Oral bioavailability in Beagle dog at 0.5 mg/kg administered as solution in 40% PEG400 in saline; format: ADME, organism-based, Canis lupus familiaris; conditions: in vivo
[4] = Volume of distribution at steady state in Han Wistar rat at […], iv; format: ADME, organism-based; design: dose 2.5 mg/kg, route intravenous; conditions: in vivo, read-out: Vdss
[5] = Volume of distribution at steady state in Beagle dog at 0.5 mg/kg, iv; format: ADME, organism-based, Canis lupus familiaris; design: dose 0.5 mg/kg, route intravenous; conditions: in vivo, read-out: Vdss
[6] = Permeability from basolateral to apical side of MDCK cells; format: ADME, cell-based, Canis lupus familiaris; conditions: dog, read-out: permeability
[7] = Oral bioavailability in Beagle dog at 0.5 mg/kg administered as suspension in 0.5% methylcellulose; format: ADME, organism-based, Canis lupus familiaris; conditions: in vivo
[8] = Solubility of the compound; format: physicochemical
[9] = Oral bioavailability in Han Wistar rat at 10 mg/kg administered as solution in 40% PEG400 in saline; format: ADME, organism-based; conditions: in vivo
[10] = Oral bioavailability in Han Wistar rat at 10 mg/kg administered as suspension in 0.5% methylcellulose; format: ADME, organism-based; conditions: in vivo
[11] = Toxicity in human A2058 cells xenografted po dosed nu/nu athymic mouse; format: organism-based; conditions: in vivo

SMILES: Nc1nc2c(c(-c3c(Cl)cc(Cl)cc3OCCn3cccn3)n1)CN(C(=O)NC1CCC1)C2
Papp A→B [1]: 4.7 ×10⁻⁶ cm/s

SMILES: Nc1nc2c(c(-c3c(Cl)cc(Cl)cc3OCCn3cccn3)n1)CN(C(=O)NC1CC1)C2
Papp A→B [1]: 0.5 ×10⁻⁶ cm/s

SMILES: Nc1nc2c(c(-c3c(Cl)cc(Cl)cc3OCCn3cccn3)n1)CN(C(=O)NC13CC(C1)C3)C2
Papp A→B [1]: 5 ×10⁻⁶ cm/s

SMILES: Cc1cc(Cl)cc(OCCn2cc(F)cn2)c1-c1nc(N)nc2c1CN(C(=O)NCC(C)(F)F)C2
Papp A→B [2]: 2.4 ×10⁻⁶ cm/s | bioavailability [3]: 63% | Vd [4]: 9.6 L/kg | Vd [5]: 8 L/kg | Papp B→A [6]: 11 ×10⁻⁶ cm/s | bioavailability [7]: 58% | solubility [8]: 200 µM (≈ 102 µg/mL) | bioavailability [9]: 19% | bioavailability [10]: 15%

SMILES: CO[C@H]1/C=C\C=C(/C)C(=O)NC2=CC(=O)C(NCCN(C)C)=C(C[C@@H](C)C[C@H](OC)[C@H](O)[C@@H](C)/C=C(\C)[C@@H]1OC(N)=O)C2=O [ALVESPIMYCIN]
MTD [11]: 10 mg/kg

Continued, values first:

Papp A→B [1]: 1.5 ×10⁻⁶ cm/s
SMILES: Nc1nc2c(c(-c3c(Cl)cc(Cl)cc3OCCn3cccn3)n1)CN(C(=O)NC1CC(F)(F)C1)C2

Papp A→B [1]: 1.2 ×10⁻⁶ cm/s
SMILES: Nc1nc2c(c(-c3c(Cl)cc(Cl)cc3OCCn3cccn3)n1)CN(C(=O)NCC(F)F)C2

Papp A→B [1]: 0.96 ×10⁻⁶ cm/s
SMILES: Nc1nc2c(c(-c3c(Cl)cc(Cl)cc3OCCn3cccn3)n1)CN(C(=O)NCC(F)(F)F)C2
